# Experimental data published in patent US20240036050A1, “Methods Of Detecting And Treating Hepatocellular Carcinoma” (The United States Government As Represented By The …, priority 2022, published 2024).
# Assays:
# Assay type in all cases: cell-based, human
# [1] = system: CD63-GFP stable cell line (Huh-7.5-CD63-GFP); assay: CD63-GFP expression by fluorescence microscopy after autophagy modulation; conditions: increasing concentrations, 72 hours
# Protocol: FIGS. 5A-5D: Show impaired autophagy promotes GPC3 accumulation in exosomes. CD63-GFP stable cell line was treated with increasing concentrations of Torin1 or Bafilomycin A1 for 72 hours.
# Huh7.5 cells were cultured in DMEM high glucose with 10% fetal calf serum (FBS), L-glutamine, 1 mM sodium pyruvate, and 0.1 mM non-essential amino acids with 1% penicillin and streptomycin. Huh-7.5 cells were transfected with CD63-GFP plasmid, and multiple stable cell lines expressing (Huh-7.5-CD63-GFP) were selected using G-418 (Sigma-Aldrich, St. Louis, MO) selection. Human cholangiocarcinoma cell line (HuCCA) and human embryonic kidney cell line (HEK 293) were purchased from ATCC. These two cell lines were cultured according to the instruction provided by the supplier and maintained with regular medium change every three days. Torin 1 was purchased from EMD Millipore, Burlington, MA (475991-10MG), and Bafilomycin A1 were purchased from Cell Signaling Technology, Danvers, MA (54645S). Exosome-free fetal bovine serum was purchased from ThermoFisher Waltham, MA (A2720803). Monoclonal rabbit and mouse antibodies were used as primary antibodies in western blot as well as fluorescent microscopy imaging. Anti-CD81 monoclonal rabbit—MA5-13548—and anti-glypican3 monoclonal rabbit—MA5-16368 purchased from ThermoFisher. […]
# [2] = system: autophagy-deficient HCC lines (Huh-7, Huh-7PX, Huh-7.5); assay: p62 degradation by Western blot after Torin1 treatment
# From the text: (§1) FIGS. 9A-9H: Show Association between p62, autophagy status, and glypican 3 (GPC3) expression in HCC cell lines and normal hepatocytes. […] Scale bars=m. […] The results are expressed as the mean±standard deviation (SD). ***P<0.001. For each cell line 10 view fields were quantified. […] Scale bars=20 m. […] Scale bars=20 m.
# PHHs or HCC cells were immobilized on glass slides and stained for p62 and glypican 3 by immunostaining. Exosomes and adherent cells were separated isolated from the cultures and lysates (20 μg of protein) prepared and examined for expression of p62, glypican 1, glypican 3 and exosome markers, CD9, TSG101 by SDS-PAGE electrophoresis and Western blotting. Cells were lysed in ice-cold lysis buffer (50 mM Tris HCl pH 8.0, 140 mM NaCl, 1.5 mM MgCl2, 0.5% NP-40 with complete protease inhibitor from Invitrogen) for 10 minutes in ice (about 1×10^6 cells/200 μL). Cells pelleted by low-speed centrifugation. The detergent compatible (DC) protein assay determined protein concentration. Samples were boiled for 10 minutes at 80° C. in the presence of 1× sodium dodecyl sulfate-polyacrylamide gel electrophoresis (SDS-PAGE)-loading buffer (250 mM Tris-HCl pH 6.8, 40% glycerol, 8% SDS, 0.57M β-mercaptoethanol, 0.12% bromophenol blue). Approximately 20 μg of protein was loaded onto 12% SDS-PAGE and transferred into a nitrocellulose membrane (LC2001 Thermo Scientific). […]
# [3] = system: Huh-7.5 cells; assay: GPC3, Tsg101 and CD63 expression in HCC cells by fluorescence microscopy and Western blot; conditions: for GPC3 and Tsg101 expression: fluorescence microscopy
# Protocol: Huh7.5 cells were cultured in DMEM high glucose with 10% fetal calf serum (FBS), L-glutamine, 1 mM sodium pyruvate, and 0.1 mM non-essential amino acids with 1% penicillin and streptomycin. Huh-7.5 cells were transfected with CD63-GFP plasmid, and multiple stable cell lines expressing (Huh-7.5-CD63-GFP) were selected using G-418 (Sigma-Aldrich, St. Louis, MO) selection. Human cholangiocarcinoma cell line (HuCCA) and human embryonic kidney cell line (HEK 293) were purchased from ATCC. These two cell lines were cultured according to the instruction provided by the supplier and maintained with regular medium change every three days. Torin 1 was purchased from EMD Millipore, Burlington, MA (475991-10MG), and Bafilomycin A1 were purchased from Cell Signaling Technology, Danvers, MA (54645S). Exosome-free fetal bovine serum was purchased from ThermoFisher Waltham, MA (A2720803). Monoclonal rabbit and mouse antibodies were used as primary antibodies in western blot as well as fluorescent microscopy imaging. Anti-CD81 monoclonal rabbit—MA5-13548—and anti-glypican3 monoclonal rabbit—MA5-16368 purchased from ThermoFisher. Anti-ARF6 monoclonal rabbit—5740S—and anti-Beta actin monoclonal rabbit—4970S purchased from Cell signaling, Anti-Tsg 101 monoclonal mouse sc-7964 purchased from Santa Cruz Biotechnology.
# Western blotting was performed using a standard protocol. Cultured cells were harvested by the treatment of trypsin-EDTA (Life Technologies, Carlsbad, CA, USA) at different time points and were washed twice with PBS, then lysed in ice-cold RIPA buffer (Sigma-Aldrich, St. Louis, MO, USA) with a protease inhibitor (ThermoFisher Scientific, Waltham, MA, USA) and phosphatase inhibitor cocktail (Sigma-Aldrich, St. Louis, MO, USA). The total protein content of the extract was quantified using NanoDrop™ 2000 (ThermoFisher Scientific, Waltham, MA, USA). Cell lysates (approximately 20 μg of protein) were loaded by SDS-PAGE and transferred into a nitrocellulose membrane ([…] pore size, ThermoFisher Scientific, Waltham, MA, USA). […]
# [4] = system: Huh-7.5 cells; assay: Exosome and microvesicle production by immuno-magnetic bead affinity flow cytometry; conditions: 72 hours; for exosome production and GPC3 positive exosomes: CD63 beads
# Protocol: Cells were cultured in exosome-depleted medium three days before the EV analysis. Briefly, cellular debris was removed from the culture supernatant by centrifugation at 2000 g for 30 minutes. Cleared supernatants were transferred to a new tube and mixed with 0.5 volumes of total EV isolation reagent from Invitrogen Carlsbad, CA (4478359). Tubes were incubated at 40 C overnight. The following day samples were centrifuged at 10,000 g for one hour at 40 C. Carefully removed supernatant, and EV pellet was resuspended in PBS and stored at […]. EVs concentration and size distribution were determined using NanoSight (Model NTA3300 with 532 nm green laser module, Malvern, Worcestershire, UK). Biotin anti-human CD63 antibody (Clone: H5C6) was purchased from BioLegend, San Diego, CA (353018). Biotin-conjugated Annexin A1 antibody was purchased from FabGennix Frisco, TX (ANXA1-BIOTIN). Biotin conjugated heparin was purchased from Sigma-Aldrich, Saint Louis, MO (B9806-10MG). Anti-glypican-3 (sc-390587 AF488), Anti-ARF6 (sc-7971 FITC), and Anti-CD81 (sc-166029 PE) were purchased from Santa Cruz Biotechnology, Santa Cruz, CA.
# Streptavidin-coated magnetic beads were purchased from Invitrogen Carlsbad, CA (10608D). Beads were prewashed in phosphate buffer saline (PBS) and then incubated with biotinylated antibodies for one hour. Antibodies to CD63 or Annexin A1 were used at a proportion of 4 μg/5 mg of beads, or biotinylated heparin was used at 100 μg/1 mg of beads. […] Following this step, the EV-bead complex was incubated with fluorescence-labeled antibodies diluted in 100 μl PBS 1% BSA for one hour at room temperature. Beads were washed in PBS 1% BSA and then analyzed on a Becton-Dickinson flow cytometer (BD FACS Celesta) using BD FACSDiva Software 6.0, San Jose, CA. […]
# The bead-based assay was used to verify the production of microvesicles and exosomes by autophagy modulation. […] The impact of autophagy modulation on the production of exosomes and microvesicles was quantified by flow analysis. […] The next day captured EVs were analyzed after staining with […] by flow cytometry. […]
# [5] = system: HCC cell lines (Huh-7, Huh-7PX, Huh-7.5, HLE); assay: DQ-Red BSA endocytosis assay with Torin1 stimulation; conditions: Torin1 200 nM
# From the text: as §1
# DQ™ Red BSA (D12051, Thermo Scientific) is a fluorogenic substrate that is endocytosed in cells and traffics through early endosomes to late endosomes that then fuse with acidic hydrolase containing lysosomes. This leads to the formation of endo-lysosomes that degrade DQ-Red BSA, de-quenching the fluorescence of the dye attached to this cargo, therefore, produces bright red spots in endo-lysosomes. Equal number of cells was seeded in 6-well plate. Then, untreated and Torin1-treated live cells were incubated with DQ-Red BSA for one hour. After washing cells with PBS, cells were fixed with 4% paraformaldehyde and counterstained with Hoechst 33342 (H3570, Thermo Scientific). Cells were examined using fluorescent microscopy.
# Next, it was confirmed whether HCC cell lines and non-transformed primary hepatocytes could recapitulate impaired autophagy and increased GPC3 expression specific to HCC. A panel of 6 HCC cell lines was examined for p62 expression levels compared to primary human hepatocytes (PHH) using immunocytochemistry (FIG. 9A). […]
SMILES,CD63-GFP expression [1],p62 levels [2],GPC3 and Tsg101 expression [3],"GPC3 and CD63 levels by Western blot ([3]; two concentrations, 72 hours)",ARF6 positive microvesicles ([4]; Annexin A1 beads),exosome production and GPC3 positive exosomes [4],"DQ-BSA fluorescence signal ([5]; autophagy-deficient HCC lines (Huh-7, Huh-7PX, Huh-7.5))",DQ-BSA fluorescence signal ([5]; autophagy-sufficient HLE cells)
CCC(=O)N1CCN(c2ccc(-n3c(=O)ccc4cnc5ccc(-c6cnc7ccccc7c6)cc5c43)cc2C(F)(F)F)CC1 [Torin1],degrades CD63-GFP chimera protein,decreased p62 levels,degrades GPC3 and Tsg101,leads to GPC3 and CD63 degradation,promote ARF6 positive microvesicles,decreased total exosome production and glypican3 positive exosomes,could only be induced following Torin1 treatment,increased
CO/C1=C\C(C)=C\[C@@H](C)[C@@H](O)[C@@H](C)C/C(C)=C/C=C/[C@H](OC)[C@@H]([C@@H](C)[C@@H](O)[C@H](C)[C@@]2(O)C[C@@H](O)[C@H](C)[C@@H](C(C)C)O2)OC1=O [Bafilomycin A1],induced its expression,,accumulates GPC3 expression,,,increased exosome release and glypican-positive exosomes,,
